Results as given in article PMC8197369, “Scale-Up Preparation of Crocins I and II from Gardenia jasminoides by a Two-Step Chromatographic Approach and Their Inhibitory Activity Against ATP Citrate Lyase” (Molecules, 2021).

Target: T1, ATP citrate lyase (ACLY) (Homo sapiens, UniProt P53396)
T1 construct: ACLY (His)
T1 sequence (P53396 1-1101): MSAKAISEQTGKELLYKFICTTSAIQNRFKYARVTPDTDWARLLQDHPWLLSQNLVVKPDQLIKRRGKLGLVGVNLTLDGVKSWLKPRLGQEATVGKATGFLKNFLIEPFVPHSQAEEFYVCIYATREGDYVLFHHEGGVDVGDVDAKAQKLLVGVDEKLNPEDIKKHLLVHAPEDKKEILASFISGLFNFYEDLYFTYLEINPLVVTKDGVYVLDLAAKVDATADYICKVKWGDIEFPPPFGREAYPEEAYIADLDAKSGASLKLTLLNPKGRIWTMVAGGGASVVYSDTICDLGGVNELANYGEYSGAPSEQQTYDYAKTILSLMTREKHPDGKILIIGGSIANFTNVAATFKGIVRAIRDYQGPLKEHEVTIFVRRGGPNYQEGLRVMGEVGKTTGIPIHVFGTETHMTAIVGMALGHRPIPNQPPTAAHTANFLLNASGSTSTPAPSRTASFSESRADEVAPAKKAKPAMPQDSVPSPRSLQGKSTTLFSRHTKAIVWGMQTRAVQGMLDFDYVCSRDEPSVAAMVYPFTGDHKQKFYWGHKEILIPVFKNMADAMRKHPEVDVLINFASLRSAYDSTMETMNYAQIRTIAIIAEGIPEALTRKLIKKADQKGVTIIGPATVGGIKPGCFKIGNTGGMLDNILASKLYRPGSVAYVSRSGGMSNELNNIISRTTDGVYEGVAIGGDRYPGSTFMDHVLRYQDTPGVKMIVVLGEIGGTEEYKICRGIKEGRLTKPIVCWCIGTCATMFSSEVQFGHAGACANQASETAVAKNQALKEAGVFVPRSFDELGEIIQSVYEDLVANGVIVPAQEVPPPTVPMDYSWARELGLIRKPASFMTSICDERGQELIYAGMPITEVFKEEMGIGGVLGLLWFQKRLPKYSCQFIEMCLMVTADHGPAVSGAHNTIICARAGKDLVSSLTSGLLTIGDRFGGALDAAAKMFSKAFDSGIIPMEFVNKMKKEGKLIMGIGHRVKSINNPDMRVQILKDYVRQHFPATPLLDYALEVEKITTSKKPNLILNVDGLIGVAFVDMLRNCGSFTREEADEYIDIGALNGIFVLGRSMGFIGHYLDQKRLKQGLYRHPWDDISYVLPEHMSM
Test: ADP-Glo ADP-coupled enzymatic assay
Type: biochemical

IC50 [µM]	SMILES
36.3 ± 6.24	CC(/C=C/C=C(\C)C(=O)O[C@@H]1O[C@H](CO[C@@H]2O[C@H](CO)[C@@H](O)[C@H](O)[C@H]2O)[C@@H](O)[C@H](O)[C@H]1O)=C\C=C\C=C(C)\C=C\C=C(/C)C(=O)O[C@@H]1O[C@H](CO[C@@H]2O[C@H](CO)[C@@H](O)[C@H](O)[C@H]2O)[C@@H](O)[C@H](O)[C@H]1O [compound 1, crocin I]
29.7 ± 7.41	CC(/C=C/C=C(\C)C(=O)O[C@@H]1O[C@H](CO)[C@@H](O)[C@H](O)[C@H]1O)=C\C=C\C=C(C)\C=C\C=C(/C)C(=O)O[C@@H]1O[C@H](CO[C@@H]2O[C@H](CO)[C@@H](O)[C@H](O)[C@H]2O)[C@@H](O)[C@H](O)[C@H]1O [compound 2, crocin II]
